{"source": "patent US20230288403A1", "about": "“METHOD FOR INDUCING EXTRACELLULAR TRAP (ET) FORMATION” (Tridek-One Therapeutics, priority 2022, published 2023)", "molecules": {"B1": {"name": "motavizumab: humanized monoclonal antibody directed against the respiratory syncytial virus (RSV), produced as a human IgG4 (antibody, chains of the INN, looked up, V domains shown)", "VH": "QVTLRESGPALVKPTQTLTLTCTFSGFSLSTAGMSVGWIRQPPGKALEWLADIWWDDKKHYNPSLKDRLTISKDTSKNQVVLKVTNMDPADTATYYCARDMIFNFYFDVWGQGTTVTVSS", "VL": "DIQMTQSPSTLSASVGDRVTITCSASSRVGYMHWYQQKPGKAPKLLIYDTSKLASGVPSRFSGSGSGTEFTLTISSLQPDDFATYYCFQGSGYPFTFGGGTKVEIK", "modifications": "IgG4", "notes": "humanized monoclonal antibody directed against the respiratory syncytial virus (RSV), produced as a human IgG4"}}, "type_in_all_cases": "cell-based", "key": {"[1]": {"system": "human peripheral blood eosinophils", "assay": "EET formation by eosinophils, live cell fluorescent microscopy (Sytox Green)", "conditions": "5 μM inhibitor; 100 μg/mL of human polyvalent Ig", "method": "High-binding, sterile 96-well plates (Greiner Bio-One, Frickenhausen, Germany) were coated with human polyvalent Ig as described in Example 1, using a coating solution comprising human polyvalent Ig at a concentration ranging from 10 to 300 μg/mL, as indicated.\nWhere indicated, the SYK inhibitor BAY-61-3606, obtained from Selleckchem (reference: S7006), was added to the culture medium at a final concentration of 5 μM.\n(§1) Eosinophils were isolated from the peripheral blood of healthy human donors by negative magnetic bead selection using a commercially available kit (STEMCELL Technologies—reference: 19656). Isolated eosinophils were then distributed in 96-well plates (Greiner Bio-One, Frickenhausen, Germany), in particular in 96-well plates coated with human polyvalent Ig or bovine serum albumin (negative control) as described above, at a concentration of 1.5×10^4 cells per well, corresponding to 2×10^5 cells/mL of culture medium. Eosinophils were then cultured in HBSS with calcium and magnesium (Gibco—reference: 24020-091) under standard conditions (i.e., humidified incubator 37° C. and 5% CO2). […]\nTime-lapse images were acquired by live cell fluorescent microscopy. Quantitative time-course measure of EET formation was performed by computer-assisted image analysis (data are expressed as GCU/well)."}, "[2]": {"system": "human peripheral blood neutrophils", "assay": "NET formation by live cell fluorescent microscopy (Sytox Green) with computer-assisted image analysis", "method": "(§2) Human polyvalent immunoglobulins (or human polyvalent Ig) also referred to as intravenous immunoglobulin or IVIg (Privigen, CSL Behring LLC) or human serum albumin or HSA (Sigma Aldrich—reference: H5667), used as negative control, diluted in coating solution (DPBS Gibco—reference: 14190) were allowed to adsorb for 2 hours at room temperature on high-binding, sterile 96-well plates suitable for fluorescence microscopy (Greiner Bio-One, Frickenhausen, Germany). Unless indicated otherwise, deposits of human polyvalent Ig were obtained with a coating solution (DPBS no calcium, no magnesium (ThermoFisher—reference: 14190) consisting of KCl 2.67 mM, KH2PO4 1.47 mM, NaCl 137.9 mM, Na2HPO4-7H2O 8.06 mM) comprising human polyvalent Ig at a concentration of 100 μg/mL. Similarly, unless indicated otherwise, deposits of HSA were obtained with a coating solution comprising HSA at a concentration of 100 μg/mL. Phorbol-12-myristate-13-acetate or PMA (Sigma Aldrich—reference: P8139) was used as positive control. PMA was added to the culture medium at a final concentration of nM. In some experiments (see FIG. 5A), human polyvalent Ig were added in the culture medium at a final concentration ranging from 3 to 300 μg/mL.\nas §1, with “Neutrophils” for “Eosinophils”, “19666).” for “19656).”, “neutrophils” for “eosinophils”, “HSA” for “bovine serum albumin (negative control)”, “7.5×10^4” for “1.5×10^4”, “10^6” for “2×10^5”\n(§3) High-binding, sterile 96-well plates (Greiner Bio-One, Frickenhausen, Germany) were coated with human polyvalent Ig as described in Example 1, using a coating solution comprising human polyvalent Ig at a concentration ranging from 3 to 300 μg/mL, as indicated. If no indication is given, deposits of human polyvalent Ig were obtained with a coating solution comprising human polyvalent Ig at a concentration of 100 μg/mL.\n(§4) Where indicated, the SYK inhibitor BAY-61-3606, obtained from Selleckchem (reference: S7006), was added to the culture medium at a final concentration ranging from 0.05 to 5 (0.05, 0.1, 0.5, 1, 5 as indicated). Where indicated, the calcineurin inhibitor FK506 (also known as tacrolimus), obtained from ASTELLAS PHARMA (PROGRAF™ 5 mg/ml), was added to the culture medium at a final concentration ranging from 0.3 to 100 nM (0.3, 1, 3, 10, 30, 100 nM, as indicated). Where indicated, the humanized monoclonal antibody motavizumab directed against the respiratory syncytial virus (RSV), produced as a human IgG4 (by Evitria, Zurich, Switzerland), was added to the culture medium at a final concentration ranging from 1 to 100 μg/mL (1, 3, 10, 30, 100 μg/mL, as indicated). Human IgG4 can engage FcRI (CD64) and enhance the activation of human neutrophils triggered by immobilized immunoglobulins, which is mediated by FcRIIa and FcRIIIb, by the engagement of an additional signaling pathway.\nHuman peripheral blood neutrophils were isolated and cultured as described in Example 1. In particular, freshly isolated peripheral blood neutrophils were distributed in coated plate as described in Example 1 (7.5×10^4 cells per well, corresponding to 10^6 cells/mL of culture medium) and cultured for the indicated time.\nThe fluorescent, cell-impermeant, nucleic acid dye Sytox Green was added to the culture medium at a concentration of 1 μM to detect NET formation. ROS (reactive oxygen species) formation was identified by the use of a fluorescent oxidative-sensitive probe (CM-H2DCFDA, ThermoFisher Scientific—reference: C6827). […]"}, "[3]": {"system": "human peripheral whole blood", "assay": "ET formation in diluted whole blood, live cell fluorescent microscopy (Sytox Green)", "conditions": "5 μM inhibitor; 20 μg/mL of human polyvalent Ig; whole blood 1/10 dilution", "method": "High-binding, sterile 96-well plates (Greiner Bio-One, Frickenhausen, Germany) were coated with human polyvalent Ig as described in Example 1, using a coating solution comprising human polyvalent Ig at a concentration ranging from 10 to 80 μg/mL, as indicated.\nWhere indicated, the SYK inhibitor BAY-61-3606, obtained from Selleckchem (reference: S7006), was added to the whole blood samples diluted in culture medium at a final concentration of 5 μM.\nFresh human peripheral whole blood was collected from healthy donors and diluted ten times (1/10 dilution) in culture medium containing cell-impermeant, nucleic acid dye Sytox Green at a concentration of 1 μM to detect ET formation. Diluted whole blood was then distributed in 96-well plates (Greiner Bio-One, Frickenhausen, Germany), in particular in 96-well plates coated with human polyvalent Ig or bovine serum albumin (negative control) as described above.\nTime-lapse images were acquired by live cell fluorescent microscopy. Quantitative time-course measure of ET formation was performed by computer-assisted image analysis (data are expressed as GCU/well)."}, "[4]": {"system": "human peripheral blood neutrophils", "assay": "ROS formation with the oxidative-sensitive fluorescent probe CM-H2DCFDA, live cell imaging", "conditions": "inhibitor 0 to 5 μM; plates coated with 100 μg/mL human polyvalent Ig; 6 hours", "method": "as §3\nas §4, with “Human IgG4 can engage FcRI (CD64) and enhance the activation of human neutrophils triggered by immobilized immunoglobulins, which is mediated by FcRIIa and FcRIIIb, by the engagement of an additional signaling pathway.” left out\nTime-lapse images were acquired by live cell fluorescent microscopy. Quantitative time-course measure of ROS and NET formation was performed by computer-assisted image analysis (data are expressed as GCU/well)."}, "[5]": {"system": "human peripheral blood neutrophils", "assay": "NET detection in fixed neutrophils by fluorescence microscopy (Sytox Green, nuclear morphology)", "conditions": "4 hours of culture, plate-bound human polyvalent Ig (coating solution 100 μg/mL) or PMA (25 nM) in culture medium", "method": "as §2, with “300 μg/mL. […]” for “300 μg/mL.”\nImages were acquired by fluorescence microscopy in the green channel. […]"}, "[6]": {"conditions": "24-hour live imaging, plate-bound human polyvalent Ig (coating solution 100 μg/mL) or PMA 25 nM"}}, "note": "“Also recorded” adds a separate entry of the source.", "data": [{"molecule": "COc1ccc(-c2cc3nccn3c(Nc3ncccc3C(N)=O)n2)cc1OC", "note": "[BAY-61-3606]", "values": [{"measurement": "EET formation induced by immobilized human polyvalent Ig", "setting": "[1]", "result": "no EET formation"}, {"measurement": "NET formation induced by immobilized human polyvalent Ig", "setting": "[2]; inhibitor 0 to 5 μM, plates coated with 100 μg/mL human polyvalent Ig, 6 hours", "result": "decreased"}, {"measurement": "NET formation elicited by motavizumab plus immobilized human polyvalent Ig", "setting": "[2]; inhibitor at a concentration of 5, 100 μg/mL motavizumab and immobilized human polyvalent Ig (100 μg/mL coating)", "result": "completely abolishes the NET formation"}, {"measurement": "ET formation induced by immobilized human polyvalent Ig", "setting": "[3]", "result": "no ET formation"}, {"measurement": "ROS production induced by immobilized human polyvalent Ig", "setting": "[4]", "result": "decreased"}]}, {"molecule": "CCCCCCCCCCCCCC(=O)O[C@@H]1[C@@H](C)[C@@]2(O)[C@@H](C=C(CO)C[C@]3(O)C(=O)C(C)=C[C@@H]23)[C@@H]2C(C)(C)[C@]12OC(C)=O", "note": "[PMA, phorbol 12-myristate 13-acetate]", "values": [{"measurement": "NET formation rate change", "setting": "[2]; [6]", "result": "causes NET formation from all neutrophils at once"}, {"measurement": "NET formation time course", "setting": "[2]; [6]", "result": "NET induction was visible on almost all neutrophils from 3-hour culture; also recorded: drives the simultaneous formation of NETs from a great number of neutrophils, within as soon as 3 hours of culture"}, {"measurement": "NET formation (nuclear morphology of neutrophils)", "setting": "[5]", "result": "most neutrophils displayed signs of NETosis"}]}, {"molecule": "B1", "values": [{"measurement": "NET formation in presence of immobilized human polyvalent Ig", "setting": "[2]; antibody 0 to 100 μg/mL in culture medium, plates coated with 100 μg/mL human polyvalent Ig, compared to coated IVIG without motavizumab", "result": "drives a proportional increase in the formation of NETs"}, {"measurement": "NET formation in absence of immobilized immunoglobulins", "setting": "[2]; antibody 0 to 100 μg/mL in culture medium, uncoated 96-well plates", "result": "is not able to drive the formation of NETs"}]}]}
